# PMC3516535, “Rhesus Macaque Theta Defensins Suppress Inflammatory Cytokines and Enhance Survival in Mouse Models of Bacteremic Sepsis” (PLoS ONE, 2012)
# Bridge positions count the residues as written; N and C are the ends. Ends that are not written are not given here. Peptide text beside a SMILES is read from it.
# Columns and labels:
# [1] = tested on: human EDTA-anti-coagulated blood diluted 1∶10; assay: TNF release assay in stimulated diluted whole blood (ELISA); assay type: cell-based; conditions: 4 h; for anti-TNF effectiveness relative to RTD-1 / hierarchy of anti-TNF potencies: E. coli-stimulated blood, N = 2
# THP-1 monocytic cells = assay: TNF release assay in LPS-stimulated THP-1 monocytes (ELISA); assay type: cell-based, human; conditions: 4 h, N = 2; for hierarchy of anti-TNF potencies: THP-1 in RPMI +5% human EDTA-plasma, 1 ng/ml K12 LPS
# Method: THP-1 monocytic cells (ATCC, Manassas, VA) were grown and maintained in RPMI-1640 medium containing 10% fetal bovine serum and penicillin/streptomycin. Cells were harvested by centrifugation, washed with RPMI-1640 medium and suspended at 5×10^5 cells/ml in fresh medium containing 5% human EDTA plasma.
# Peptides (RTDs 1–5, human neutrophil α-defensins) were aliquoted into wells of pyrogen-free 12- or 24-well plates wherein final peptide concentrations were 0–10 µg/ml. Wells were inoculated with 1×10^5 CFU/ml S. aureus or 100 CFU/ml E. coli, or 1–3 ng/ml of E. coli K12 LPS. Samples (5–10 µl) containing peptide or bacteria/LPS were placed on opposite sides of the plate well. Mixing commenced with the addition of 0.5 to 2.0 ml of 1∶10 diluted blood, PBLs (5×10^5/ml), or THP-1 cells (2–5×10^5 cells/ml). Plates were incubated at 37°C in 5% CO2 for 4 h with gentle mixing. […] Incubation mixtures were centrifuged at 200× g for 10 min at 22°C and supernatants were clarified by centrifugation at 23,000× g for 15 min at 4°C. Supernatant TNF was quantified by sandwich ELISA (OptEIA II; BD Biosciences; Hu TNF-α, Invitrogen) per suppliers’ directions, using a SpectraMax Plate Reader.
# CLP sepsis = tested on: CLP sepsis; set-up: method as in PMID 12545019; conditions: multiple doses; cited from earlier work
# lethal bacteremia = conditions: single systemic administration at time of bacterial challenge; cited from earlier work
# Text: The macrocyclic structure of θ-defensins confers remarkable stability. […] RTD-1 was also well-tolerated when administered intravenously or subcutaneously to mice, rats, and chimpanzees. Following repeated injections, neither of two chimpanzees produced anti-RTD-1 antibody. […] The discovery of antimicrobial peptides and their proven roles in host defense has prompted studies to evaluate dive ...
Compound,anti-TNF effectiveness relative to RTD-1 [1],hierarchy of anti-TNF potencies [1],hierarchy of anti-TNF potencies (THP-1 monocytic cells),other results
"HNP-2: human neutrophil α-defensin purified from human neutrophils (CYCRIPACIAGERRYGTCIYQGRLWAFCC; ends and bridges not checked; cysteine pairing not given here; UniProt P59665 66-94, looked up) [reference compound]",–,–,–,"effect on stimulated TNF release ([1]; E. coli-stimulated, 0–10 µg/ml peptide): no inhibitory effect; effect on stimulated TNF release (THP-1 monocytic cells; THP-1, 1 ng/ml K12 LPS): no inhibitory effect"
"CC[C@H](C)[C@@H]1NC(=O)[C@@H]2CSSC[C@H](NC(=O)[C@H](CCCNC(=N)N)NC(=O)[C@@H]3CSSC[C@H](NC1=O)C(=O)N[C@@H]([C@@H](C)O)C(=O)N[C@@H](CCCNC(=N)N)C(=O)NCC(=O)N[C@@H](Cc1ccccc1)C(=O)N3)C(=O)N[C@@H]([C@@H](C)CC)C(=O)N[C@H]1CSSC[C@H](NC(=O)[C@H](Cc3ccccc3)NC(=O)CNC(=O)[C@H](CCCNC(=N)N)NC(=O)[C@H]([C@@H](C)O)NC1=O)C(=O)N[C@@H](CCCNC(=N)N)C(=O)N2 [RTD-3] (cyclo(CICTRGFCRCICTRGFCR); disulfide 1-10, 3-8, 12-17)",less active,RTD-5>2>1>4>3,RTD-5>2>1>4>3,–
"PG-1: porcine protegrin (RGGRLCYCRRRFCVCVGR; ends and bridges not checked; cysteine pairing not given here; UniProt P32194 131-148, looked up)",–,–,–,endotoxin-neutralizing effect (CLP sepsis): little endotoxin-neutralizing effect; therapeutic effect compared to vehicle control (CLP sepsis): no therapeutic effect
"indolicidin: antimicrobial peptide from ungulates (ILPWKWPWWPWRR; ends and bridges not checked; UniProt P33046 131-143, looked up)",–,–,–,protection against lethal bacteremia (lethal bacteremia): Protection
"LL-37: antimicrobial peptide derived from human cells (LLGDFFRKSKEKIGKEFKRIVQRIKDFLRNLVPRTES; Antibacterial peptide LL-37; UniProt P49913 134-170, looked up)",–,–,–,protection against lethal bacteremia (lethal bacteremia): Protection
"CC[C@H](C)[C@@H]1NC(=O)CNC(=O)[C@H](CC(C)C)NC(=O)[C@H](C(C)C)NC(=O)[C@@H]2CSSC[C@H](NC1=O)C(=O)N[C@@H](CCCNC(=N)N)C(=O)N[C@H]1CSSC[C@H](NC(=O)[C@H](CCCNC(=N)N)NC(=O)[C@@H]3CSSC[C@H](NC(=O)[C@H]([C@@H](C)CC)NC1=O)C(=O)N[C@@H]([C@@H](C)O)C(=O)N[C@@H](CCCNC(=N)N)C(=O)NCC(=O)N[C@@H](Cc1ccccc1)C(=O)N3)C(=O)N[C@@H]([C@@H](C)CC)C(=O)N2 [RTD-4] (cyclo(CICTRGFCRCICVLGICR); disulfide 1-10, 3-8, 12-17)",less active,RTD-5>2>1>4>3,RTD-5>2>1>4>3,–
"CC(C)C[C@@H]1NC(=O)[C@@H]2CSSC[C@H](NC(=O)[C@H](CCCNC(=N)N)NC(=O)[C@@H]3CSSC[C@H](NC1=O)C(=O)N[C@@H](CCCNC(=N)N)C(=O)N[C@@H](CCCNC(=N)N)C(=O)NCC(=O)N[C@@H](C(C)C)C(=O)N3)C(=O)N[C@@H](CC(C)C)C(=O)N[C@H]1CSSC[C@H](NC(=O)[C@H](C(C)C)NC(=O)CNC(=O)[C@H](CCCNC(=N)N)NC(=O)[C@H](CCCNC(=N)N)NC1=O)C(=O)N[C@@H](CCCNC(=N)N)C(=O)N2 [RTD-2] (cyclo(CLCRRGVCRCLCRRGVCR); disulfide 1-10, 3-8, 12-17)",substantially more effective than RTD-1,RTD-5>2>1>4>3,RTD-5>2>1>4>3,–
"CC[C@H](C)[C@@H]1NC(=O)CNC(=O)[C@H](CC(C)C)NC(=O)[C@H](C(C)C)NC(=O)[C@@H]2CSSC[C@H](NC1=O)C(=O)N[C@@H](CCCNC(=N)N)C(=O)N[C@H]1CSSC[C@H](NC(=O)[C@H](CCCNC(=N)N)NC(=O)[C@@H]3CSSC[C@H](NC(=O)[C@H]([C@@H](C)CC)NC1=O)C(=O)N[C@@H](CCCNC(=N)N)C(=O)N[C@@H](CCCNC(=N)N)C(=O)NCC(=O)N[C@@H](C(C)C)C(=O)N3)C(=O)N[C@@H]([C@@H](C)CC)C(=O)N2 [RTD-5] (cyclo(CICRRGVCRCICVLGICR); disulfide 1-10, 3-8, 12-17)",substantially more effective than RTD-1,RTD-5>2>1>4>3,RTD-5>2>1>4>3,–
